In ChEMBL document CHEMBL3885881, “DrugMatrix”:

Organism: Rattus norvegicus
Test: DrugMatrix - Regimen: Daily Repeat
Assay type: toxicity, organism-based, Sprague-Dawley
Set-up: regimen Daily Repeat, gender Male, age 6-8 weeks
Settings: in vivo, sc, route subcutaneous, […]; for ABSOLUTE BASOPHIL / ABSOLUTE EOSINOPHIL / ABSOLUTE LYMPHOCYTE / ABSOLUTE MONOCYTE / ABSOLUTE SEGMENTED NEUTROPHIL / BASOPHIL / EOSINOPHIL / ERYTHROCYTE COUNT / HEMATOCRIT / HEMOGLOBIN / LEUKOCYTE COUNT / LYMPHOCYTE / MEAN CORPUSCULAR HEMOGLOBIN / MEAN CORPUSCULAR HEMOGLOBIN CONCENTRATION / MEAN CORPUSCULAR VOLUME / MONOCYTE / NEUTROPHIL / NUCLEATED RED BLOOD CELLS / PLATELET COUNT: tissue Blood; for ALANINE AMINOTRANSFERASE / ALBUMIN / ALKALINE PHOSPHATASE / ASPARTATE AMINOTRANSFERASE / BLOOD UREA NITROGEN / CARBON DIOXIDE / CHLORIDE / CHOLESTEROL / CREATINE PHOSPHOKINASE / CREATININE / GLUCOSE / LACTATE DEHYDROGENASE / LIPASE / PHOSPHORUS / POTASSIUM / SODIUM / TOTAL BILIRUBIN / TOTAL PROTEIN / URIC ACID: tissue Plasma
[1] = 50 mg/kg, 120 h, dose level Low, time 5 day
[2] = 150 mg/kg, 72 h, dose level M2, time 3 day
[3] = 150 mg/kg, 120 h, dose level M2, time 5 day

With `CC(C)(c1ccc(O)cc1)c1ccc(O)cc1` [BISPHENOL A] the “ABSOLUTE BASOPHIL” value [1] was 0 CELLS/uL, the “ABSOLUTE EOSINOPHIL” value [1] was 0 CELLS/uL and the “ABSOLUTE LYMPHOCYTE” value [1] was 15258.67 CELLS/uL. For the same compound, the “ABSOLUTE MONOCYTE” value [1] was 508.33 CELLS/uL, the “ABSOLUTE SEGMENTED NEUTROPHIL” value [1] was 1433 CELLS/uL and the BASOPHIL [1] was 0%. For the same compound, the EOSINOPHIL [1] was 0%, the “ERYTHROCYTE COUNT” value [1] was 5.65 x10E6/uL and the HEMATOCRIT [1] was 35.13%. The HEMOGLOBIN [1] was 13.73 G/DL, the “LEUKOCYTE COUNT” value [1] was 17.2 x10E3/uL and the LYMPHOCYTE [1] was 89%. For the same compound, the “MEAN CORPUSCULAR HEMOGLOBIN” value [1] was 24.33 pg, the “MEAN CORPUSCULAR HEMOGLOBIN CONCENTRATION” value [1] was 39.07 G/DL and the “MEAN CORPUSCULAR VOLUME” value [1] was 62.23 fL. The MONOCYTE [1] was 2.33%, the NEUTROPHIL [1] was 8.67% and the “NUCLEATED RED BLOOD CELLS” value [1] was 0 /100WBC. The “PLATELET COUNT” value [1] was 1289 x10E3/uL, the “ALANINE AMINOTRANSFERASE” value [1] was 62.67 u/L and the ALBUMIN [1] was 3.57 G/DL. The “ALKALINE PHOSPHATASE” value [1] was 300 u/L, the “ASPARTATE AMINOTRANSFERASE” value [1] was 93 u/L and the “BLOOD UREA NITROGEN” value [1] was 14.67 mg/dL. For the same compound, the “CARBON DIOXIDE” value [1] was 24 mmol/L, the CHLORIDE [1] was 103.67 MEQ/L and the CHOLESTEROL [1] was 48.67 mg/dL. The “CREATINE PHOSPHOKINASE” value [1] was 675.67 u/L, the CREATININE [1] was 0.15 mg/dL and the GLUCOSE [1] was 190.67 mg/dL. The “LACTATE DEHYDROGENASE” value [1] was 256.67 u/L, the LIPASE [1] was 11.67 u/L and the PHOSPHORUS [1] was 13.4 mg/dL. For the same compound, the POTASSIUM [1] was 6.14 MEQ/L, the SODIUM [1] was 142.27 MEQ/L and the “TOTAL BILIRUBIN” value [1] was 0.1 mg/dL. The “TOTAL PROTEIN” value [1] was 5.27 G/DL, the “URIC ACID” value [1] was 2.23 mg/dL and the “ABSOLUTE BASOPHIL” value [2] was 0 CELLS/uL. The “ABSOLUTE EOSINOPHIL” value [2] was 21 CELLS/uL, the “ABSOLUTE LYMPHOCYTE” value [2] was 7705 CELLS/uL and the “ABSOLUTE MONOCYTE” value [2] was 0 CELLS/uL. For the same compound, the “ABSOLUTE SEGMENTED NEUTROPHIL” value [2] was 574 CELLS/uL, the BASOPHIL [2] was 0% and the EOSINOPHIL [2] was 0.33%. For the same compound, the “ERYTHROCYTE COUNT” value [2] was 5.46 x10E6/uL, the HEMATOCRIT [2] was 34.77% and the HEMOGLOBIN [2] was 13.53 G/DL. For the same compound, the “LEUKOCYTE COUNT” value [2] was 8.3 x10E3/uL, the LYMPHOCYTE [2] was 92.33% and the “MEAN CORPUSCULAR HEMOGLOBIN” value [2] was 24.8 pg. The “MEAN CORPUSCULAR HEMOGLOBIN CONCENTRATION” value [2] was 38.97 G/DL, the “MEAN CORPUSCULAR VOLUME” value [2] was 63.67 fL and the MONOCYTE [2] was 0%. The NEUTROPHIL [2] was 7.33%, the “NUCLEATED RED BLOOD CELLS” value [2] was 0 /100WBC and the “PLATELET COUNT” value [2] was 1030 x10E3/uL. The “ALANINE AMINOTRANSFERASE” value [2] was 54.67 u/L, the ALBUMIN [2] was 3.73 G/DL and the “ALKALINE PHOSPHATASE” value [2] was 286.67 u/L. The “ASPARTATE AMINOTRANSFERASE” value [2] was 73 u/L, the “BLOOD UREA NITROGEN” value [2] was 9.33 mg/dL and the “CARBON DIOXIDE” value [2] was 21 mmol/L. The CHLORIDE [2] was 96 MEQ/L, the CHOLESTEROL [2] was 72.67 mg/dL and the “CREATINE PHOSPHOKINASE” value [2] was 254.33 u/L. The CREATININE [2] was 0.11 mg/dL, the GLUCOSE [2] was 143 mg/dL and the “LACTATE DEHYDROGENASE” value [2] was 106.33 u/L. The LIPASE [2] was 8 u/L, the PHOSPHORUS [2] was 11.83 mg/dL and the POTASSIUM [2] was 5.68 MEQ/L. The SODIUM [2] was 141.4 MEQ/L, the “TOTAL BILIRUBIN” value [2] was 0.1 mg/dL and the “TOTAL PROTEIN” value [2] was 5.57 G/DL. For the same compound, the “URIC ACID” value [2] was 0.53 mg/dL, the “ABSOLUTE BASOPHIL” value [3] was 0 CELLS/uL and the “ABSOLUTE EOSINOPHIL” value [3] was 91.33 CELLS/uL. For the same compound, the “ABSOLUTE LYMPHOCYTE” value [3] was 12830 CELLS/uL, the “ABSOLUTE MONOCYTE” value [3] was 122 CELLS/uL and the “ABSOLUTE SEGMENTED NEUTROPHIL” value [3] was 2190 CELLS/uL. For the same compound, the BASOPHIL [3] was 0%, the EOSINOPHIL [3] was 0.67% and the “ERYTHROCYTE COUNT” value [3] was 5.93 x10E6/uL. For the same compound, the HEMATOCRIT [3] was 36.47%, the HEMOGLOBIN [3] was 14.23 G/DL and the “LEUKOCYTE COUNT” value [3] was 15.23 x10E3/uL. The LYMPHOCYTE [3] was 85%, the “MEAN CORPUSCULAR HEMOGLOBIN” value [3] was 24.1 pg and the “MEAN CORPUSCULAR HEMOGLOBIN CONCENTRATION” value [3] was 39.03 G/DL. The “MEAN CORPUSCULAR VOLUME” value [3] was 61.63 fL, the MONOCYTE [3] was 0.67% and the NEUTROPHIL [3] was 13.67%. The “NUCLEATED RED BLOOD CELLS” value [3] was 0.33 /100WBC, the “PLATELET COUNT” value [3] was 1323.33 x10E3/uL and the “ALANINE AMINOTRANSFERASE” value [3] was 59 u/L. The ALBUMIN [3] was 3.77 G/DL, the “ALKALINE PHOSPHATASE” value [3] was 246.33 u/L and the “ASPARTATE AMINOTRANSFERASE” value [3] was 81.67 u/L. For the same compound, the “BLOOD UREA NITROGEN” value [3] was 13.33 mg/dL, the “CARBON DIOXIDE” value [3] was 25.67 mmol/L and the CHLORIDE [3] was 102.67 MEQ/L. For the same compound, the CHOLESTEROL [3] was 61.67 mg/dL, the “CREATINE PHOSPHOKINASE” value [3] was 253 u/L and the CREATININE [3] was 0.21 mg/dL. The GLUCOSE [3] was 193 mg/dL, the “LACTATE DEHYDROGENASE” value [3] was 151.67 u/L and the LIPASE [3] was 10 u/L. The PHOSPHORUS [3] was 13.27 mg/dL, the POTASSIUM [3] was 5.91 MEQ/L and the SODIUM [3] was 142.47 MEQ/L. For the same compound, the “TOTAL BILIRUBIN” value [3] was 0.13 mg/dL, the “TOTAL PROTEIN” value [3] was 5.57 G/DL and the “URIC ACID” value [3] was 2.37 mg/dL.
